Laboratory results taken from the NIST ThermoML archive (doi:10.1021/je0604481).
Numbers after ± are expanded uncertainties.

Test: mn = molality of the nth substance listed, in mol/kg
Conditions: Liquid; for viscosity: Capillary tube (Ostwald / Ubbelohde) method; for mass density: Constant-volume piezometry

O=S(=O)([O-])[O-].[Mg+2] [magnesium sulfate] + O
viscosity (348.15 K, 100 kPa, m1 = 2.291): 1.503 ± 0.024 mPa·s | mass density (348.15 K, 101 kPa, m1 = 0.084): 984.5 ± 0.61 kg/m3 | mass density (348.15 K, 101 kPa, m1 = 0.261): 1004.83 ± 0.62 kg/m3 | mass density (348.15 K, 101 kPa, m1 = 0.469): 1028.4 ± 0.64 kg/m3 | mass density (348.15 K, 101 kPa, m1 = 0.841): 1069.05 ± 0.67 kg/m3 | viscosity (348.15 K, 10000 kPa, m1 = 0.437): 0.4948 ± 0.0082 mPa·s | viscosity (348.15 K, 10000 kPa, m1 = 2.291): 1.514 ± 0.024 mPa·s | viscosity (348.15 K, 30000 kPa, m1 = 0.437): 0.5024 ± 0.0083 mPa·s | viscosity (348.15 K, 30000 kPa, m1 = 2.291): 1.536 ± 0.025 mPa·s | viscosity (348.2 K, 100 kPa, m1 = 1.824): 1.127 ± 0.018 mPa·s | viscosity (348.2 K, 10000 kPa, m1 = 1.824): 1.135 ± 0.018 mPa·s | viscosity (348.2 K, 30000 kPa, m1 = 1.824): 1.151 ± 0.019 mPa·s | mass density (348.23 K, 2118 kPa, m1 = 2.224): 1208.2 ± 0.8 kg/m3 | mass density (348.23 K, 8002 kPa, m1 = 2.224): 1210.4 ± 0.8 kg/m3 | mass density (348.23 K, 14710 kPa, m1 = 2.224): 1212.2 ± 0.8 kg/m3 | mass density (348.23 K, 25300 kPa, m1 = 2.224): 1215.7 ± 0.8 kg/m3 | mass density (348.23 K, 30020 kPa, m1 = 2.224): 1217.1 ± 0.9 kg/m3 | viscosity (348.25 K, 100 kPa, m1 = 0.255): 0.4399 ± 0.0073 mPa·s | viscosity (348.25 K, 10000 kPa, m1 = 0.255): 0.4432 ± 0.0073 mPa·s | viscosity (348.25 K, 30000 kPa, m1 = 0.255): 0.4502 ± 0.0075 mPa·s | viscosity (348.32 K, 100 kPa, m1 = 0.085): 0.3976 ± 0.0066 mPa·s | viscosity (348.32 K, 10000 kPa, m1 = 0.085): 0.4008 ± 0.0067 mPa·s | viscosity (348.32 K, 30000 kPa, m1 = 0.085): 0.4066 ± 0.0068 mPa·s | viscosity (348.35 K, 100 kPa, m1 = 2.623): 1.849 ± 0.03 mPa·s | viscosity (348.35 K, 10000 kPa, m1 = 2.623): 1.863 ± 0.03 mPa·s | viscosity (348.35 K, 30000 kPa, m1 = 2.623): 1.889 ± 0.03 mPa·s | viscosity (348.36 K, 100 kPa, m1 = 0.722): 0.5831 ± 0.0096 mPa·s | viscosity (348.36 K, 10000 kPa, m1 = 0.722): 0.5875 ± 0.0096 mPa·s | viscosity (348.36 K, 30000 kPa, m1 = 0.722): 0.5961 ± 0.0098 mPa·s | viscosity (348.75 K, 100 kPa, m1 = 0.923): 0.6495 ± 0.011 mPa·s | viscosity (348.75 K, 10000 kPa, m1 = 0.923): 0.6548 ± 0.011 mPa·s | viscosity (348.75 K, 30000 kPa, m1 = 0.923): 0.6642 ± 0.011 mPa·s | mass density (358.95 K, 101 kPa, m1 = 2.224): 1200.88 ± 0.75 kg/m3 | mass density (358.95 K, 101 kPa, m1 = 2.535): 1228.61 ± 0.77 kg/m3 | viscosity (370.1 K, 100 kPa, m1 = 2.291): 1.068 ± 0.017 mPa·s | viscosity (370.1 K, 10000 kPa, m1 = 2.291): 1.078 ± 0.017 mPa·s | viscosity (370.1 K, 30000 kPa, m1 = 2.291): 1.099 ± 0.018 mPa·s | viscosity (370.4 K, 100 kPa, m1 = 0.923): 0.4894 ± 0.0081 mPa·s | viscosity (370.4 K, 10000 kPa, m1 = 0.923): 0.4945 ± 0.0082 mPa·s | viscosity (370.4 K, 30000 kPa, m1 = 0.923): 0.5035 ± 0.0083 mPa·s | viscosity (370.45 K, 100 kPa, m1 = 0.085): 0.3053 ± 0.0051 mPa·s | viscosity (370.45 K, 100 kPa, m1 = 0.722): 0.4386 ± 0.0073 mPa·s | viscosity (370.45 K, 10000 kPa, m1 = 0.085): 0.3084 ± 0.0052 mPa·s | viscosity (370.45 K, 10000 kPa, m1 = 0.722): 0.4433 ± 0.0073 mPa·s | viscosity (370.45 K, 30000 kPa, m1 = 0.085): 0.3144 ± 0.0053 mPa·s | viscosity (370.45 K, 30000 kPa, m1 = 0.722): 0.4516 ± 0.0075 mPa·s | viscosity (370.75 K, 100 kPa, m1 = 2.623): 1.295 ± 0.021 mPa·s | viscosity (370.75 K, 10000 kPa, m1 = 2.623): 1.308 ± 0.021 mPa·s | viscosity (370.75 K, 30000 kPa, m1 = 2.623): 1.333 ± 0.022 mPa·s | viscosity (371.44 K, 100 kPa, m1 = 1.824): 0.804 ± 0.013 mPa·s | viscosity (371.44 K, 10000 kPa, m1 = 1.824): 0.811 ± 0.013 mPa·s | viscosity (371.44 K, 30000 kPa, m1 = 1.824): 0.827 ± 0.013 mPa·s | viscosity (371.9 K, 100 kPa, m1 = 0.437): 0.3654 ± 0.0061 mPa·s | viscosity (371.9 K, 10000 kPa, m1 = 0.437): 0.3694 ± 0.0062 mPa·s | viscosity (371.9 K, 30000 kPa, m1 = 0.437): 0.3766 ± 0.0063 mPa·s | viscosity (372.4 K, 100 kPa, m1 = 0.255): 0.33 ± 0.0055 mPa·s | viscosity (372.4 K, 10000 kPa, m1 = 0.255): 0.3336 ± 0.0056 mPa·s | viscosity (372.4 K, 30000 kPa, m1 = 0.255): 0.34 ± 0.0057 mPa·s | mass density (373.22 K, 3020 kPa, m1 = 2.535): 1220.3 ± 0.8 kg/m3 | mass density (373.22 K, 6610 kPa, m1 = 2.535): 1221.6 ± 0.8 kg/m3 | mass density (373.22 K, 14380 kPa, m1 = 2.535): 1224.1 ± 0.8 kg/m3 | mass density (373.22 K, 21080 kPa, m1 = 2.535): 1226.1 ± 0.9 kg/m3 | mass density (373.22 K, 24710 kPa, m1 = 2.535): 1227.4 ± 0.9 kg/m3 | mass density (373.22 K, 29800 kPa, m1 = 2.535): 1229 ± 0.9 kg/m3 | mass density (373.24 K, 2275 kPa, m1 = 2.224): 1192.8 ± 0.8 kg/m3 | mass density (373.24 K, 7355 kPa, m1 = 2.224): 1194.5 ± 0.8 kg/m3 | mass density (373.24 K, 12870 kPa, m1 = 2.224): 1196.4 ± 0.8 kg/m3 | mass density (373.24 K, 20420 kPa, m1 = 2.224): 1198.9 ± 0.8 kg/m3 | mass density (373.24 K, 29820 kPa, m1 = 2.224): 1201.7 ± 0.9 kg/m3 | viscosity (394.16 K, 10000 kPa, m1 = 2.623): 0.963 ± 0.016 mPa·s | viscosity (394.16 K, 30000 kPa, m1 = 2.623): 0.985 ± 0.016 mPa·s | viscosity (396.25 K, 10000 kPa, m1 = 0.923): 0.377 ± 0.0063 mPa·s | viscosity (396.25 K, 30000 kPa, m1 = 0.923): 0.3862 ± 0.0064 mPa·s | viscosity (397.1 K, 10000 kPa, m1 = 1.824): 0.605 ± 0.0099 mPa·s | viscosity (397.1 K, 30000 kPa, m1 = 1.824): 0.619 ± 0.01 mPa·s | viscosity (397.14 K, 10000 kPa, m1 = 0.085): 0.2381 ± 0.0041 mPa·s | viscosity (397.14 K, 30000 kPa, m1 = 0.085): 0.2437 ± 0.0042 mPa·s | mass density (398.15 K, 5810 kPa, m1 = 2.535): 1203.8 ± 0.8 kg/m3 | mass density (398.15 K, 11100 kPa, m1 = 2.535): 1205.6 ± 0.8 kg/m3 | mass density (398.15 K, 21700 kPa, m1 = 2.535): 1209 ± 0.9 kg/m3 | mass density (398.15 K, 29400 kPa, m1 = 2.535): 1211.5 ± 0.9 kg/m3 | mass density (398.19 K, 2452 kPa, m1 = 2.224): 1175.3 ± 0.8 kg/m3 | mass density (398.19 K, 7355 kPa, m1 = 2.224): 1177.2 ± 0.8 kg/m3 | mass density (398.19 K, 12080 kPa, m1 = 2.224): 1178.9 ± 0.8 kg/m3 | mass density (398.19 K, 19850 kPa, m1 = 2.224): 1181.7 ± 0.8 kg/m3 | mass density (398.19 K, 26220 kPa, m1 = 2.224): 1183.8 ± 0.9 kg/m3 | viscosity (398.7 K, 10000 kPa, m1 = 2.291): 0.774 ± 0.013 mPa·s | viscosity (398.7 K, 30000 kPa, m1 = 2.291): 0.792 ± 0.013 mPa·s | viscosity (398.75 K, 10000 kPa, m1 = 0.437): 0.2834 ± 0.0048 mPa·s | viscosity (398.75 K, 30000 kPa, m1 = 0.437): 0.2901 ± 0.0049 mPa·s | viscosity (399.24 K, 10000 kPa, m1 = 0.722): 0.3306 ± 0.0055 mPa·s | viscosity (399.24 K, 30000 kPa, m1 = 0.722): 0.3384 ± 0.0057 mPa·s | viscosity (399.44 K, 10000 kPa, m1 = 0.255): 0.2566 ± 0.0044 mPa·s | viscosity (399.44 K, 30000 kPa, m1 = 0.255): 0.2625 ± 0.0045 mPa·s | viscosity (422.1 K, 10000 kPa, m1 = 1.824): 0.477 ± 0.0079 mPa·s | viscosity (422.1 K, 30000 kPa, m1 = 1.824): 0.49 ± 0.0081 mPa·s | viscosity (422.35 K, 10000 kPa, m1 = 0.923): 0.3 ± 0.0051 mPa·s | viscosity (422.35 K, 30000 kPa, m1 = 0.923): 0.3081 ± 0.0052 mPa·s | viscosity (422.7 K, 10000 kPa, m1 = 0.085): 0.1945 ± 0.0034 mPa·s | viscosity (422.7 K, 30000 kPa, m1 = 0.085): 0.1999 ± 0.0035 mPa·s | viscosity (423.85 K, 10000 kPa, m1 = 0.255): 0.2113 ± 0.0037 mPa·s | viscosity (423.85 K, 30000 kPa, m1 = 0.255): 0.2169 ± 0.0037 mPa·s | viscosity (424.13 K, 10000 kPa, m1 = 0.437): 0.23 ± 0.004 mPa·s | viscosity (424.13 K, 30000 kPa, m1 = 0.437): 0.2366 ± 0.0041 mPa·s | viscosity (428.16 K, 10000 kPa, m1 = 0.722): 0.2597 ± 0.0044 mPa·s | viscosity (428.16 K, 30000 kPa, m1 = 0.722): 0.2673 ± 0.0045 mPa·s | viscosity (447.16 K, 10000 kPa, m1 = 0.255): 0.1798 ± 0.0032 mPa·s | viscosity (447.16 K, 30000 kPa, m1 = 0.255): 0.1855 ± 0.0033 mPa·s | viscosity (447.42 K, 10000 kPa, m1 = 0.437): 0.1966 ± 0.0034 mPa·s | viscosity (447.42 K, 30000 kPa, m1 = 0.437): 0.2019 ± 0.0035 mPa·s | viscosity (448.24 K, 10000 kPa, m1 = 0.085): 0.1643 ± 0.0029 mPa·s | viscosity (448.24 K, 30000 kPa, m1 = 0.085): 0.1694 ± 0.003 mPa·s
